Assay results published in patent US9382258B2, “Agents for treating pain and uses thereof” (AbbVie Inc., priority 2012, dated 2016).

The compounds below were run against T1, human Cav2.2 (Homo sapiens, UniProt Q00975) (assay: Calcium flux (FLIPR, Calcium 4 dye) in IMR32 cells endogenously expressing human Cav2.2). Settings: 60 minute pre-incubation, 2 μM nifedipine to block L-type channels, depolarized with 80 mM KCl, 5 mM CaCl2, average of n≥2 runs unless marked *.
T1 construct: cells endogenously expressing human Cav2.2; endogenous in cells; host or cells: IMR32 cells
T1 sequence (Q00975 whole entry): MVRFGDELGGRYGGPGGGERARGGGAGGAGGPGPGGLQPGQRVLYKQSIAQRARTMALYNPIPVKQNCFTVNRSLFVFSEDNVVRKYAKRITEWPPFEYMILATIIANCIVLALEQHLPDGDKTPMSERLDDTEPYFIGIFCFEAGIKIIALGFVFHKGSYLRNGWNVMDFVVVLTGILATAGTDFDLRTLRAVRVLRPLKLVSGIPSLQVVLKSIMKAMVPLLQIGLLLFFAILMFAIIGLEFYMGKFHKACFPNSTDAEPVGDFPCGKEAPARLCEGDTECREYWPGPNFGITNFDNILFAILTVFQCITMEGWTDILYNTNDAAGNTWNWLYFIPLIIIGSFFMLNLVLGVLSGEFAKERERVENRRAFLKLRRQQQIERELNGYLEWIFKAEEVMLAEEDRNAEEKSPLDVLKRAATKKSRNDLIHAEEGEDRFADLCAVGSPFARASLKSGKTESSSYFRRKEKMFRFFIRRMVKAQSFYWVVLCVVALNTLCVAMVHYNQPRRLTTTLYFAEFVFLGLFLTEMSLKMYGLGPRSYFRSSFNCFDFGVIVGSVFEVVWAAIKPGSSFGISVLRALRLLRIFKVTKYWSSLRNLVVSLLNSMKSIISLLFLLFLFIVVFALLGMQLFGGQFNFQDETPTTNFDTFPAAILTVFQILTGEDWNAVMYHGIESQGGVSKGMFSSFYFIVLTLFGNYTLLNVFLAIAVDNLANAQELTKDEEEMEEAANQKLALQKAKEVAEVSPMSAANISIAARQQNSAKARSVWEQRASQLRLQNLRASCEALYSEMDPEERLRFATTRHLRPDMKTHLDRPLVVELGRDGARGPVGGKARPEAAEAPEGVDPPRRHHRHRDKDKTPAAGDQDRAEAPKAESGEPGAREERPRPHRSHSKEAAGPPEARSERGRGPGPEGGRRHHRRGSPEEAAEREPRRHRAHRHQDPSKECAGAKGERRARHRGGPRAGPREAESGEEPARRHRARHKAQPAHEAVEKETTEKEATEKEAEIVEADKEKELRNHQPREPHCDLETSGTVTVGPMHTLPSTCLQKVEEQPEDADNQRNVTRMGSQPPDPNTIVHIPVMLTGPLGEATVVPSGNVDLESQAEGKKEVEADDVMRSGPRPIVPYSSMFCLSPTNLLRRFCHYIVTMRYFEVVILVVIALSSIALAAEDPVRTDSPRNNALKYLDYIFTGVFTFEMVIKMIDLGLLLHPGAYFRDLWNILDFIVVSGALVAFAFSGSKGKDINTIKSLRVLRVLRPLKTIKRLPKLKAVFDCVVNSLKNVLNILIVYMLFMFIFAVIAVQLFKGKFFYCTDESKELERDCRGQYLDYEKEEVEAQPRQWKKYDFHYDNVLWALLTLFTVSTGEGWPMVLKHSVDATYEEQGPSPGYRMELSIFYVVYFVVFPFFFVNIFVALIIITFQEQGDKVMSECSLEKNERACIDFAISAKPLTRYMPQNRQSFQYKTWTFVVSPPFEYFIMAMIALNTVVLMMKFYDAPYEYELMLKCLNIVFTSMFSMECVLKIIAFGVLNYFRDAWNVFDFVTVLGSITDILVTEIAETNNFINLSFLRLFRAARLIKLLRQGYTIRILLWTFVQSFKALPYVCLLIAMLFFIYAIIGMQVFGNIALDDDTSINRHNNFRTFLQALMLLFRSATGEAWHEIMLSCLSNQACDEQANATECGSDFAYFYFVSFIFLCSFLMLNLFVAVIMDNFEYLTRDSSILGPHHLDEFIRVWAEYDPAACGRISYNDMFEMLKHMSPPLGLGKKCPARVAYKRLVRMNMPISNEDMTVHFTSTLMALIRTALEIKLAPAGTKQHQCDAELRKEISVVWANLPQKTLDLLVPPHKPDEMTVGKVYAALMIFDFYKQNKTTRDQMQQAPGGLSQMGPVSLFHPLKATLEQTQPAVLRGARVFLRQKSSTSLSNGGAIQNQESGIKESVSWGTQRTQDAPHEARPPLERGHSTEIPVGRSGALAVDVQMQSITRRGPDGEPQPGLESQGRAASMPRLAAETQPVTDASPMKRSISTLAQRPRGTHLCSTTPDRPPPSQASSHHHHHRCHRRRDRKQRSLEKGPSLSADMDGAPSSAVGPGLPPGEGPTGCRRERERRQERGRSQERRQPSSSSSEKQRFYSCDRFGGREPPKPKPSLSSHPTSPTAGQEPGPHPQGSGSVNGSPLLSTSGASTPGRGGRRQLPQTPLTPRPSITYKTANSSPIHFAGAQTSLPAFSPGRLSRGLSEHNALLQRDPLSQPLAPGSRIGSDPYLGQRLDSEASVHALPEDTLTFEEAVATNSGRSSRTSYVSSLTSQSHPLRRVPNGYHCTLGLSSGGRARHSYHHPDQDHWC
T1 sequence (P54284 whole entry partner): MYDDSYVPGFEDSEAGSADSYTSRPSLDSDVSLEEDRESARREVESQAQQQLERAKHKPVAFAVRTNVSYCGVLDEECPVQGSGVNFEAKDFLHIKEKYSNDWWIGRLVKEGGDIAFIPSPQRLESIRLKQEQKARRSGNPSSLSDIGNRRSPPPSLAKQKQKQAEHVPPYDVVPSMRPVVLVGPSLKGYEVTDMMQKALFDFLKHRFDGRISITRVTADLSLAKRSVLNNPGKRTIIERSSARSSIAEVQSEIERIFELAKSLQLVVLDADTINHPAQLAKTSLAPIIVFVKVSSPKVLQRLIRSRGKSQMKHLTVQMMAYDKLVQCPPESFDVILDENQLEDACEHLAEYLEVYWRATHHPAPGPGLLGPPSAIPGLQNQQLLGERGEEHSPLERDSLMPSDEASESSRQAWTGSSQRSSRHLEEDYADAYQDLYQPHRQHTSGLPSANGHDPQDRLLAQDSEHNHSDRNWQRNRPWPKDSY
T1 sequence (P54289 25-956 partner limits assumed): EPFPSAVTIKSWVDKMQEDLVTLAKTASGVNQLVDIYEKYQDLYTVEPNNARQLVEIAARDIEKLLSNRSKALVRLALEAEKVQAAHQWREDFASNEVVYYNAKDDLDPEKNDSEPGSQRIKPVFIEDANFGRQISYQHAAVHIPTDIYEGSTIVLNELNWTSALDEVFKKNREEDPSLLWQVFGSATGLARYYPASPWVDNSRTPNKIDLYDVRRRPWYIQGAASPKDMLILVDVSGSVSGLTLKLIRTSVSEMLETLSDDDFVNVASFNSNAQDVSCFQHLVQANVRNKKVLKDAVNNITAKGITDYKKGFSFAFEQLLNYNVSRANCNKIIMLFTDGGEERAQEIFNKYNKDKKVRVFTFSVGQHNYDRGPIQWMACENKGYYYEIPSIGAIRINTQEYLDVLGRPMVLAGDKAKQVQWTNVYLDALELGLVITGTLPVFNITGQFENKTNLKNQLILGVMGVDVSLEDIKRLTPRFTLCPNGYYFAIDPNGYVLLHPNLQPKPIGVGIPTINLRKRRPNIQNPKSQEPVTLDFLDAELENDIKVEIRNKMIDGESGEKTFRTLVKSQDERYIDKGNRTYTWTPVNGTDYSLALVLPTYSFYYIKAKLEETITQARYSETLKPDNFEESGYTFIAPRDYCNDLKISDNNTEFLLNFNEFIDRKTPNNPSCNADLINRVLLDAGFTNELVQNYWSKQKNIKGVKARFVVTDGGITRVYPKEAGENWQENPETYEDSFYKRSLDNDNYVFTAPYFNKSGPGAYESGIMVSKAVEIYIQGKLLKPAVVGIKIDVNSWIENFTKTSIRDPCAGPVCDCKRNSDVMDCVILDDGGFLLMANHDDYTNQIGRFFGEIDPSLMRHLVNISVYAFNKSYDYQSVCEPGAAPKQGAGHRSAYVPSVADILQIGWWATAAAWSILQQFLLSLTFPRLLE
T1 sequence (P54289 957-1103 partner limits assumed): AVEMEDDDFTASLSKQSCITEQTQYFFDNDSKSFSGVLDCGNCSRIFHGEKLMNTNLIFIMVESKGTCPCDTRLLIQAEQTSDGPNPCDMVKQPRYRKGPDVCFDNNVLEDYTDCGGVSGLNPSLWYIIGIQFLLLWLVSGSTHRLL
Format: cell-based
Protocol: Compounds were tested for effect on calcium flux in cells endogenously expressing human Cav2.2. Specifically, IMR32 cells endogenously expressing human Cav2.2 were assayed for Ca^2+ influx using a no-wash calcium indicator dye (Calcium 4 dye: Molecular Probes) and FLIPR technology (Lubin, M L; et al. Assay and Drug Development Technologies, 2006, 4(6), 689-694). The IMR32 cells were maintained in MEM media containing 10% (v/v) FBS, 1% (v/v) antibiotic/antimitotic, 1% (v/v) sodium pyruvate and 1% (v/v) MEM NEAA. Following dissociation in 0.05% (v/v) trypsin/EDTA, cells were seeded into black 1×96-well plates (Corning Cellbind) at a density of 1−1.2×10^5 cells/well and incubated in the maintenance media above for 48 hours at 37° C. Immediately prior to performing the assay the media was removed and cells were loaded for 1.5 hours with 1× Calcium 4 dye prepared in HBSS (137 mM NaCl, 5.4 mM KCl, 0.25 mM Na2HPO4, 0.44 mM KH2PO4, 1.3 mM CaCl2, 1 mM MgSO4, 4.2 mM NaHCO3) containing HEPES pH 7.4 at room temperature. After dye loading and a subsequent 60 minute pre-incubation with compounds (full log dilutions from 10 μM to 0.1 nM) in the presence of 1.3 mM CaCl2 and 2 μM nifedipine to block endogenous L-type channels, the external Ca^2+ concentration was increased to 5 mM CaCl2 and the cells concomitantly depolarized with 80 mM KCl to assay channel activity.
To determine the IC50 values, the percent inhibition of the compound at each concentration was determined relative to the activity in the absence of inhibitor, and data was fitted using non-linear regression sigmoidal dose response curve analysis with GraphPad Prism®. Unless otherwise indicated (*), the reported values are average values from at least two runs (i.e., n≧2).
In the case of `FC(F)(F)c1cccc(N2CCCN3C[C@H](Oc4cnc(C5CC5)cn4)C[C@H]3C2)n1` [Example 20, (8R,9aS)-8-[(5-cyclopropylpyrazin-2-yl)oxy]-2-[6-(trifluoromethyl)pyridin-2-yl]octahydro-1H-pyrrolo[1,2-a][1,4]diazepane], the IC50 is reported as 750 nM.
`O=C(c1ccc(C(F)(F)F)cc1)N1CCC(=O)N2C[C@H](Oc3cnc(C4CC4)cn3)C[C@H]2C1` [Example 33, (8R,9aS)-8-[(5-cyclopropylpyrazin-2-yl)oxy]-2-[4-(trifluoromethyl)benzoyl]octahydro-5H-pyrrolo[1,2-a][1,4]diazepin-5-one] was tested, and the IC50 was 3730 nM.
For `O=C1[C@H](Oc2ccc(C(F)(F)F)cn2)C[C@H]2CN(S(=O)(=O)c3cccc(C(F)(F)F)c3)CCCN12` [Example 4, (8R,9aS)-2-{[3-(trifluoromethyl)phenyl]sulfonyl}-8-{[5-(trifluoromethyl)pyridin-2-yl]oxy}octahydro-7H-pyrrolo[1,2-a][1,4]diazepin-7-one], the IC50 was 880 nM.
Work on `O=C1CCN(Cc2ccc(OC(F)(F)F)cc2)C[C@H]2C[C@H](Oc3cnc(C4CC4)cn3)CN12` [Example 62, (8S,9aR)-8-[(5-cyclopropylpyrazin-2-yl)oxy]-2-[4-(trifluoromethoxy)benzyl]octahydro-5H-pyrrolo[1,2-a][1,4]diazepin-5-one] yielded an IC50 of 3230 nM.
Compound `O=C1CCN(S(=O)(=O)c2ccc(C(F)(F)F)cc2)C[C@@H]2C[C@@H](Oc3cnc(C4CC4)cn3)CN12` [Example 29, (8R,9aS)-8-[(5-cyclopropylpyrazin-2-yl)oxy]-2-{[4-(trifluoromethyl)phenyl]sulfonyl}octahydro-5H-pyrrolo[1,2-a][1,4]diazepin-5-one] has an IC50 of 490 nM.
`O=C(c1cccc(C(F)(F)F)c1F)N1CCCN2C[C@H](Oc3cnc(C4CC4)cn3)C[C@H]2C1` [Example 10, [(8R,9aS)-8-[(5-cyclopropylpyrazin-2-yl)oxy]hexahydro-1H-pyrrolo[1,2-a][1,4]diazepin-2(3H)-yl][2-fluoro-3-(trifluoromethyl)phenyl]methanone] showed an IC50 of 920 nM.
`O=C1CCN(Cc2cccc(C(F)(F)F)c2)C[C@@H]2C[C@@H](Oc3ccc(C(F)(F)F)cn3)CN12` [Example 45, (8R,9aS)-2-[3-(trifluoromethyl)benzyl]-8-{[5-(trifluoromethyl)pyridin-2-yl]oxy}octahydro-5H-pyrrolo[1,2-a][1,4]diazepin-5-one] showed an IC50 of 620 nM.
`O=C1CCN(Cc2cccc(OC(F)(F)F)c2)C[C@@H]2C[C@@H](Oc3cnc(C4CC4)cn3)CN12` [Example 43, (8R,9aS)-8-[(5-cyclopropylpyrazin-2-yl)oxy]-2-[3-(trifluoromethoxy)benzyl]octahydro-5H-pyrrolo[1,2-a][1,4]diazepin-5-one] showed an IC50 of 1110 nM.
Compound `O=C1[C@H](Oc2cnc(C3CC3)cn2)C[C@H]2CN(c3ccc(C(F)(F)F)cn3)CCCN12` [Example 21, (8R,9aS)-8-[(5-cyclopropylpyrazin-2-yl)oxy]-2-[5-(trifluoromethyl)pyridin-2-yl]octahydro-7H-pyrrolo[1,2-a][1,4]diazepin-7-one] has an IC50 of 3470 nM.
For `O=C1[C@@H](Oc2ccc(C(F)(F)F)cn2)C[C@H]2CN(S(=O)(=O)c3cccc(C(F)(F)F)c3)CCCN12` [Example 3, (8S,9aS)-2-{[3-(trifluoromethyl)phenyl]sulfonyl}-8-{[5-(trifluoromethyl)pyridin-2-yl]oxy}octahydro-7H-pyrrolo[1,2-a][1,4]diazepin-7-one], the IC50 was 1250 nM.
For `O=C(c1cccc(C(F)(F)F)c1F)N1CCC(=O)N2C[C@H](Oc3cnc(C4CC4)cn3)C[C@H]2C1` [Example 34, (8R,9aS)-8-[(5-cyclopropylpyrazin-2-yl)oxy]-2-[2-fluoro-3-(trifluoromethyl)benzoyl]octahydro-5H-pyrrolo[1,2-a][1,4]diazepin-5-one], the IC50 was 1010 nM.
With `CNC(C(=O)N1CCC(=O)N2C[C@H](Oc3cnc(C4CC4)cn3)C[C@H]2C1)c1cccc(C(F)(F)F)c1` (stereo partly drawn) [Example 41, (8R,9aS)-8-[(5-cyclopropylpyrazin-2-yl)oxy]-2-{(methylamino)[3-(trifluoromethyl)phenyl]acetyl}octahydro-5H-pyrrolo[1,2-a][1,4]diazepin-5-one] the IC50 was 3450 nM.
`O=C(Cc1cccc(C(F)(F)F)c1)N1CCC(=O)N2C[C@H](Oc3cnc(C4CC4)cn3)C[C@H]2C1` [Example 39] gave an IC50 of 2080 nM.
With `O=C1CCN(S(=O)(=O)c2ccc(C(F)(F)F)cc2)C[C@H]2C[C@@H](Oc3cnc(C4CC4)cn3)CN12` [Example 58, (8R,9aR)-8-[(5-cyclopropylpyrazin-2-yl)oxy]-2-{[4-(trifluoromethyl)phenyl]sulfonyl}octahydro-5H-pyrrolo[1,2-a][1,4]diazepin-5-one] the IC50 was 3750 nM.
`O=C(c1ccc(C(F)(F)F)c(F)c1)N1CCCN2C[C@H](Oc3cnc(C4CC4)cn3)C[C@H]2C1` [Example 15, [(8R,9aS)-8-[(5-cyclopropylpyrazin-2-yl)oxy]hexahydro-1H-pyrrolo[1,2-a][1,4]diazepin-2(3H)-yl][3-fluoro-4-(trifluoromethyl)phenyl]methanone] was tested, and the IC50 was 1330 nM.
`O=C1[C@@H]2C[C@@H](Oc3cnc(C4CC4)cn3)CN2CCCN1Cc1ccc(C(F)(F)F)cc1` [Example 23, (8R,9aS)-8-[(5-cyclopropylpyrazin-2-yl)oxy]-2-[4-(trifluoromethyl)benzyl]octahydro-1H-pyrrolo[1,2-a][1,4]diazepin-1-one] showed an IC50 of 980 nM.
In the case of `O=C1[C@@H]2C[C@@H](Oc3cnc(C4CC4)cn3)CN2CCCN1Cc1ccc(C(F)(F)F)c(F)c1` [Example 25, (8R,9aS)-8-[(5-cyclopropylpyrazin-2-yl)oxy]-2-[3-fluoro-4-(trifluoromethyl)benzyl]octahydro-1H-pyrrolo[1,2-a][1,4]diazepin-1-one], the IC50 is reported as 1190 nM.
`O=C(c1ccc(F)c(C(F)(F)F)c1)N1CCC(=O)N2C[C@H](Oc3cnc(C4CC4)cn3)C[C@H]2C1` [Example 36, (8R,9aS)-8-[(5-cyclopropylpyrazin-2-yl)oxy]-2-[4-fluoro-3-(trifluoromethyl)benzoyl]octahydro-5H-pyrrolo[1,2-a][1,4]diazepin-5-one] was tested, and the IC50 was 1780 nM.
In the case of `O=S(=O)(c1ccc(C(F)(F)F)cc1)N1CCCN2C[C@H](Oc3cnc(C4CC4)cn3)C[C@H]2C1` [Example 2, (8R,9aS)-8-[(5-cyclopropylpyrazin-2-yl)oxy]-2-{[4-(trifluoromethyl)phenyl]sulfonyl}octahydro-1H-pyrrolo[1,2-a][1,4]diazepane], the IC50 is reported as 200 nM.
Work on `O=C(c1cccc(OC(F)(F)F)c1)N1CCC(=O)N2C[C@H](Oc3cnc(C4CC4)cn3)C[C@H]2C1` [Example 37, (8R,9aS)-8-[(5-cyclopropylpyrazin-2-yl)oxy]-2-[3-(trifluoromethoxy)benzoyl]octahydro-5H-pyrrolo[1,2-a][1,4]diazepin-5-one] yielded an IC50 of 1140 nM.
With `O=C1CCN(S(=O)(=O)c2ccc(C(F)(F)F)cc2)C[C@@H]2C[C@H](Oc3cnc(C4CC4)cn3)CN12` [Example 61, (8S,9aS)-8-[(5-cyclopropylpyrazin-2-yl)oxy]-2-{[4-(trifluoromethyl)phenyl]sulfonyl}octahydro-5H-pyrrolo[1,2-a][1,4]diazepin-5-one] the IC50 was 1200 nM.
Work on `O=C1[C@@H](Oc2ccc(C(F)(F)F)cn2)C[C@H]2CN(S(=O)(=O)c3ccc(C(F)(F)F)cc3)CCCN12` [Example 5, (8S,9aS)-2-{[4-(trifluoromethyl)phenyl]sulfonyl}-8-{[5-(trifluoromethyl)pyridin-2-yl]oxy}octahydro-7H-pyrrolo[1,2-a][1,4]diazepin-7-one] yielded an IC50 of 1760 nM.
Work on `O=C(C(O)c1cccc(C(F)(F)F)c1)N1CCC(=O)N2C[C@H](Oc3cnc(C4CC4)cn3)C[C@H]2C1` (stereo partly drawn) [Example 40, (8R,9aS)-8-[(5-cyclopropylpyrazin-2-yl)oxy]-2-{hydroxy[3-(trifluoromethyl)phenyl]acetyl}octahydro-5H-pyrrolo[1,2-a][1,4]diazepin-5-one] yielded an IC50 of 4700 nM.
For `O=C(c1cccc(C(F)(F)F)c1)N1CCC(=O)N2C[C@@H](Oc3cnc(C4CC4)cn3)C[C@@H]2C1` [Example 63, (8S,9aR)-8-[(5-cyclopropylpyrazin-2-yl)oxy]-2-[3-(trifluoromethyl)benzoyl]octahydro-5H-pyrrolo[1,2-a][1,4]diazepin-5-one], the IC50 was 22500 nM.
Compound `O=C1CCN(S(=O)(=O)c2ccc(C(F)(F)F)cc2)C[C@@H]2C[C@@H](Oc3ccc(C(F)(F)F)nc3)CN12` [Example 54, (8R,9aS)-2-{[4-(trifluoromethyl)phenyl]sulfonyl}-8-{[6-(trifluoromethyl)pyridin-3-yl]oxy}octahydro-5H-pyrrolo[1,2-a][1,4]diazepin-5-one] has an IC50 of 1290 nM.
With `O=C1CCN(S(=O)(=O)c2ccc(C(F)(F)F)cc2)C[C@@H]2C[C@@H](Oc3ccc(C(F)(F)F)cn3)CN12` [Example 52, (8R,9aS)-2-{[4-(trifluoromethyl)phenyl]sulfonyl}-8-{[5-(trifluoromethyl)pyridin-2-yl]oxy}octahydro-5H-pyrrolo[1,2-a][1,4]diazepin-5-one] the IC50 was 1260 nM.
